Source: patent US11352358B2, “FXR agonist” (XUANZHU BIOPHARMACEUTICAL CO., LTD., priority 2017, dated 2022)

Experiments:
[1] = Liver microsome metabolism stability, rat liver microsome; type: in vitro ADME, SD rat; settings: 0.5 mg protein/mL, test sample 1 μM, β-NADPH
Procedure: (§1) Test samples: the homemade compounds 1, 2, 4 and 5 of the present invention (for their chemical names and preparation methods, see the preparation example for each compound).
(§2) a mixed liver microsomes of SD rat and human both purchased from XenoTech, with batch Nos.: 1410271 (SD rat) and 1410013 (human) respectively, wherein the microsomal protein concentrations both were 20 mg mL^−1;
(§3) experimental promoter β-NADPH purchased from Roche (batch No.: 524F0231); and a phosphate buffer solution (pH 7.4) made in the lab.
(§4) An appropriate amount of the test sample powder was weighed accurately, and dissolved in an appropriate amount of dimethyl sulfoxide (DMSO) to a concentration of 1 mM; and the solution was then diluted by 20 times with methanol to yield a 50 μM working solution.
(§5) (1) According to the proportions in table 3 “Composition of the incubation system for liver microsome metabolism stability experiment” above, for each compound, 6 mL of PBS (100 mM), 0.6 mL of MgCl2 solution (20 mM) and 3.66 mL of H2O were made into a mixed solution 1 for the incubation system (not containing the microsomes, the test sample and β-NADPH).
(§6) (2) Liver microsomes (20 mg protein/mL) were taken from a refrigerator (−80° C.), and were placed on a thermostatic water bath oscillator (37° C.) and pre-incubated for 3 mins.
(§7) (3) For each compound, 1.88 mL of the mixed solution 1 for the incubation system was added with 55 μL of microsomes to obtain a mixed solution 2 for the incubation system (not containing the test sample and β-NADPH).
(§8) (4) Sample group (containing the microsomes and D-NADPH): 616 μL of mixed solution 2 for the incubation system was added with 14 μL of the test sample working solution (with a concentration of 50 μM), and with 70 μL of R-NADPH working solution (10 mM). The resulted solution was well mixed, and the resulted solution was then duplicated. The time points of sampling were at 0 min, 5th min, 10th min, 20th min, 30th min and 60th min.
(§9) (5) Control group (containing the microsomes, and water instead of D-NADPH): 264 μL of mixed solution 2 for the incubation system was added with 6 μL of the test sample working solution (50 μM), and with 30 μL of water. The resulted solution was well mixed, and the resulted solution was then duplicated. The time points of sampling were at 0 min and 60th min.
(§10) (6) 50 μL of sample was taken from an incubating sample tube at each predetermined time point, added to a terminating sample tube (containing 300 μL of cold terminator), and vortexed; and the reaction was terminated.
(§11) (7) after 10 mins of vortexing, the solution was centrifuged for 5 mins (12,000 rpm).
(§12) (8) 100 μL of supernatant was taken and added with 100 μL of water, and the mixture solution was thoroughly vortexed; and the solution was then analyzed by LC-MS/MS.
(§13) Percentages of residual contents were calculated according to the following formula.

[2] = Liver microsome metabolism stability, human liver microsome; type: in vitro ADME; settings: 0.5 mg protein/mL, test sample 1 μM, β-NADPH
Procedure: as §1, §2, §3, §4, §5, §6, §7, §8, §9, §10, §11, §12, §13

BSEP mRNA in HepG2 cells [3] = assay: Relative expression of BSEP mRNA in HepG2 cells (qPCR), Experimental Example 1; type: cell-based, human; settings: 24 hrs, expression under 3 μM of PX-104 as 100%
Procedure: compounds of the present invention (for their chemical names and preparation methods, see the preparation example of each compound); compound PX-104 and compound 30-70 (for their structures, see the background of the invention, and for their preparation methods, see patent applications WO2011020615A1 and WO2012087519A1).
(§14) Cells were digested with pancreatin and collected, and the concentration of the cells was determined; according to the counting result, the cells were resuspended to a density of 7.5×10^5 cells/mL; 2 mL of the cell suspension was inoculated in each well of a 6-well cell culture plate; and the culture plate was placed in an incubator and cultured under the conditions of 37° C. and 5% CO2 for 24 hrs.
The to-be-tested compounds were diluted to 0.3 mM and 3 mM with DMSO; and 5 μL of each stock solution diluted in the previous step was added to 5 mL of medium individually. The concentrations of the obtained working solutions were 0.3 μM and 3 μM respectively. In the control group, medium was prepared by using equivoluminal DMSO instead of the stock solutions; the cell culture plate was taken out from the incubator; the medium was removed from the cell culture plate, and the working solutions and the control medium were added correspondingly; and the culture plate was then put back into the incubator and cultured under the conditions of 37° C. and 5% CO2 for 24 hrs.
after treatment for 24 hrs, the cell culture plate was taken out, and the medium was removed from the plate; the cells were rinsed three times with pre-cooled (4° C.) PBS; and 200 μL of pancreatin (preheated to 37° C.) was added to each well, and the plate was then gently shaken such that the pancreatin could evenly cover the plate bottom. The culture plate was then placed back into the incubator and incubated until the cells were separated from the plate bottom. 1 mL of medium was added to terminate digestion. The solution was gently pipetted and blown for several times with a pipettor, all the substances in each well were pipetted into a 1.5 mL Rnase-free centrifuge tube and centrifuged at 200×g for 5 mins; supernatants were removed to collect cell samples.
Cell lysis: Fresh RNA lysis buffer was prepared (wherein 10 μL of 2-mercaptoethanol was added to 1 mL of lysis buffer); 600 μL of lysis buffer was added to each cell sample; the cells were lysed completely by 1 to 2 mins of vigorous vortexing; the cell lysates were centrifuged at 12,000×g for 5 mins; and the supernatants were transferred to 1.5 mL Rnase-free centrifuge tubes.
Extraction and purification of RNA: An equal amount of 70% ethanol was added to each cell lysate; the centrifuge tubes were then shaken vigorously, and the buffer was mixed sufficiently, so that the particulate precipitates that might be formed after the addition of ethanol were dispersed as even as possible; and adsorption columns were put into collecting tubes, and the mixtures were transferred to the adsorption columns. 700 μL was transferred at most each time; and the solutions were centrifuged at 12,000×g under room temperature for 15 secs. The solutions in the collecting tubes were discarded, and the adsorption columns were put into the collecting tubes once again; and all the remaining mixtures were then transferred into the adsorption columns. 700 μL of eluent I was added to the adsorption column; and the solutions were centrifuged at 12,000×g under room temperature for 15 secs. The adsorption columns were put into new collecting tubes; 500 μL of eluent II was added to the adsorption column; and the solutions were centrifuged at 12,000×g under room temperature for 15 secs. […]

[4] = tested on: CYP7A1 mRNA in HepG2 cells; assay: Relative expression of CYP7A1 mRNA in HepG2 cells, IC50 (Experimental Example 3); type: cell-based; settings: Homo sapiens, 24 hrs
Procedure: (§15) compounds of the present invention (for their chemical names and preparation methods, see the preparation example for each compound).
(§16) HepG2 cell: human liver cancer cell;
CYP7A1: cholesterol 7-alpha hydroxylase;
(§17) Control: compound 1-1B with a structure shown as follows, prepared according to a prior art method (for detailed information, see patent application WO2012087519A1).
as §14
(§18) The compounds were diluted to 3000, 1000, 200, 8, 1.6, 0.32, 0.0128, 0.00256 and 0.000512 μM with DMSO. Compound solutions of different concentrations obtained in the previous step were further diluted by 1,000 times with media to obtain working solutions, and a medium containing 0.1% of DMSO was adopted as a control group. The cell culture plate was taken out from the incubator, the medium was removed, and the working solutions and the control medium were added. The culture plate was placed back into the incubator and cultured under the conditions of 37° C. and 5% CO2 for 24 hrs. […]

SHP mRNA in AML12 cells = assay: Relative expression of SHP mRNA in AML12 cells, EC50 (Experimental Example 4); type: cell-based; settings: Mus musculus, 24 hrs
Procedure: as §15
AML12 cells: mouse liver cells.
as §17
as §14, with “of 7.5×10^4” for “of 7.5×10^5”, “cells/mL; 1” for “cells/mL; 2”, “a 12-well” for “a 6-well”
The compound were diluted to 1000, 200, 8, 1.6, 0.32, 0.128, 0.0256 and 0.00512 μM with DMSO. Compound solutions of different concentrations obtained in the previous step were further diluted by 1000 times with media to obtain working solutions, and a medium containing 0.1% of DMSO was adopted as a control group. The cell culture plate was taken out from the incubator, the medium was removed, and the working solutions and the control medium were added. The culture plate was placed back into the incubator and cultured under the conditions of 37° C. and 5% CO2 for 24 hrs.
after treatment for 24 hrs, the cell culture plate was taken out from the incubator, and the medium was removed from the plate; the cells were rinsed three times with pre-cooled (4° C.) PBS (phosphate buffer solution); and 200 μL of pancreatin (preheated to 37° C.) was added to each well, and the plate was then gently shaken such that the pancreatin could evenly cover the plate bottom. The culture plate was then placed back into the incubator and incubated until the cells were separated from the plate bottom. 1 mL of medium was added to terminate digestion. […]

BSEP mRNA in HepG2 cells [5] = assay: Relative expression of BSEP mRNA in HepG2 cells, EC50 (Experimental Example 3); type: cell-based; settings: Homo sapiens, 24 hrs
Procedure: as §15, §16
BSEP: bile salt export pump;
as §17, §14, §18

SHP mRNA in HepG2 cells = assay: Relative expression of SHP mRNA in HepG2 cells, EC50 (Experimental Example 3); type: cell-based; settings: Homo sapiens, 24 hrs
Procedure: as §15, §16
SHP: small heterodimer partner;
as §17, §14, §18

| Structure (SMILES) | Residual content (%) after 60 minutes of incubation [1] | Residual content (%) after 60 minutes of incubation [2] | relative expression of BSEP mRNA in HepG2 cells (BSEP mRNA in HepG2 cells [3]; Table 2, 0.3 μM) | relative expression of BSEP mRNA in HepG2 cells (BSEP mRNA in HepG2 cells [3]; Table 2, 3 μM) | IC50 [4] | EC50 (SHP mRNA in AML12 cells) | EC50 (BSEP mRNA in HepG2 cells [5]) | EC50 (SHP mRNA in HepG2 cells) | relative expression of BSEP mRNA in HepG2 cells (BSEP mRNA in HepG2 cells [3]; Table 1, 0.3 μM) | relative expression of BSEP mRNA in HepG2 cells (BSEP mRNA in HepG2 cells [3]; Table 1, 3 μM) |
| --- | --- | --- | --- | --- | --- | --- | --- | --- | --- | --- |
| Cc1cc(C(=O)O)cc2sc(N3C[C@H]4C[C@@H]3C[C@@H]4OCc3c(-c4c(Cl)cccc4Cl)noc3C3CC3)nc12 (racemic) [Compound 5, 2-((1RS, 4RS, 5SR)-5-((5-cyclopropyl-3-(2,6-dichlorophenyl)isoxazol-4-yl)methoxy)-2-azabicyclo[2.2.1]heptan-2-yl)-4-methylbenzo[d]thiazole-6-carboxylic acid] | 49% | 31% | 103% | 123% | – | – | – | – | – | – |
| O=C(O)c1cc(F)c2nc(N3[C@@H]4CC[C@H]3C[C@@H](OCc3c(-c5ccccc5OC(F)(F)F)noc3C3CC3)C4)sc2c1 [Compound 1-1B, reference compound] | – | – | – | – | 0.1 nM | 1.51 nM | 0.75 nM | 0.26 nM | – | – |
| O=C(O)c1ccc2nc(N3C[C@H]4C[C@@H]3C[C@@H]4OCc3c(-c4c(Cl)cccc4Cl)noc3C3CC3)sc2c1 (racemic) [Compound 2, 2-((1RS, 4RS, 5SR)-5-((5-cyclopropyl-3-(2,6-dichlorophenyl)isoxazol-4-yl)methoxy)-2-azabicyclo[2.2.1]heptan-2-yl)benzo[d]thiazole-6-carboxylic acid] | 94% | 55% | – | – | – | – | – | – | 145% | 179% |
| O=C(O)c1ccc2nc(N3[C@@H]4CC[C@H]3C[C@@H](OCc3c(-c5c(Cl)cccc5Cl)noc3C3CC3)C4)sc2c1 [Compound 30-70, reference compound] | – | 20% | – | – | – | – | – | – | 105% | 146% |
| O=C(O)c1ccc(C2CC2c2ccc(OCc3c(-c4c(Cl)cccc4Cl)noc3C3CC3)cc2Cl)cc1 (stereo not drawn) [PX-104, reference compound] | – | – | 45% | 100% | – | – | – | – | 60% | 100% |
| O=C(O)c1cc(F)c2nc(N3C[C@H]4C[C@@H]3C[C@@H]4OCc3c(-c4c(Cl)cccc4Cl)noc3C3CC3)sc2c1 (racemic) [Compound 4, 2-((1RS, 4RS, 5SR)-5-((5-cyclopropyl-3-(2,6-dichlorophenyl)isoxazol-4-yl)methoxy)-2-azabicyclo[2.2.1]heptan-2-yl)-4-fluorobenzo[d]thiazole-6-carboxylic acid] | 69% | 54% | 97% | 96% | – | – | – | – | – | – |
| COc1cc(C(=O)O)cc2sc(N3C[C@H]4C[C@@H]3C[C@@H]4OCc3c(-c4c(Cl)cccc4Cl)noc3C3CC3)nc12 (racemic) [Compound 1, 2-((RS, 4RS, 5SR)-5-((5-cyclopropyl-3-(2,6-dichlorophenyl)isoxazol-4-yl)methoxy)-2-azabicyclo[2.2.1]heptan-2-yl)-4-methoxybenzo[d]thiazole-6-carboxylic acid] | 53% | 49% | 121% | 102% | – | – | – | – | – | – |
